Experimental data taken from publication PMC9319560 (Viruses, 2022).
“Also recorded” adds a separate entry of the source. Read-outs that look alike come from different tables or passages of the source. No end group written: not given here.

Assays:
[1] = tested on: viral envelope; conditions: previous studies; cited from earlier work
[2] = tested on: West Nile virus (WNV); assay: WNV RNA quantification by RT-qPCR in infected human primary keratinocytes; type: cell-based; conditions: NHEK, WNV MOI 0.1, 24 h; for viral load in the cell monolayers: peptide 1 or 10 µg/mL added 1 h before infection, versus untreated; for effect on WNV replication in human primary keratinocytes: peptide 1 or 10 µg/mL, viral load in monolayer and supernatant by RT-qPCR
[3] = tested on: human primary keratinocytes (NHEK); type: cell-based; conditions: 3 h, RT-qPCR; for pro-inflammatory effects of the peptide alone (mRNA of inflammatory markers): peptide alone 0.1, 1 and 10 µg/mL, 6 independent experiments (Figure S1)
[4] = tested on: normal human epidermal keratinocytes (NHEK); assay: XTT cell viability assay on NHEK; type: cell-based; conditions: concentrations up to 10 µg/mL (1 to 20 µg/mL tested), 48 h incubation, compared with non-treated cells, mean of at least 3 independent experiments
[5] = tested on: human primary keratinocytes (NHEK) infected by WNV; assay: Inflammatory marker mRNA expression in NHEK infected with WNV, RT-qPCR; type: cell-based; conditions: WNV MOI 0.1, 24 h, 1 or 10 µg/mL peptide, versus WNV alone, similar trend, fold changes less marked, 5 independent experiments
[6] = tested on: pro-inflammatory cytokine release; conditions: cell-specific and concentration-dependent; cell supernatant; cited from earlier work
[7] = tested on: viperin (RSAD2); assay: Viperin; type: cell-based, human; conditions: NHEK, WNV MOI 0.1, 48 h, immunofluorescence, 3 independent experiments
[8] = tested on: normal human epidermal keratinocytes (NHEK); assay: LDH release assay on NHEK; type: cell-based; conditions: concentrations up to 10 µg/mL (1 to 20 µg/mL tested), 48 h per b34/b35 (24 h per b9), compared with non-treated cells, mean of at least 3 independent experiments
[9] = tested on: West Nile virus (WNV); conditions: for reduction in the viral titer (factor): WNV inoculum 10^5.27 TCID50/mL pre-incubated 1 h at 37 °C (legend: 2 h), residual titer on Vero cells, versus WNV incubated alone, 5 independent experiments
[10] = tested on: human immunodeficiency virus; conditions: concentration-dependent antiviral effect against human immunodeficiency virus; cited from earlier work
[11] = tested on: DENV; conditions: pretreatment by 30 µg/mL of peptide; cited from earlier work
[12] = tested on: human primary keratinocytes (NHEK); assay: Inflammatory marker mRNA expression in NHEK stimulated with poly(I:C), RT-qPCR; type: cell-based; conditions: NHEK stimulated with 0.1 µg/mL poly(I:C) alone, 3 h
[13] = RT-qPCR, 5 independent experiments
[14] = 1 µg/mL peptide, versus WNV alone, p < 0.05
[15] = whatever the concentration of the peptide (1 or 10 µg/mL)

Row | Substance | concentration from which degradation of the viral envelope was observed [1] [µg/mL] | decrease of viral RNA in the cell supernatant ([2]; 10 µg/mL peptide added 1 h before infection, RT-qPCR, versus untreated cells, 5 independent experiments, p < 0.05) [fold] | viral load in the cell monolayers [2, 13] | effect on WNV replication in human primary keratinocytes [2] | pro-inflammatory effects of the peptide alone (mRNA of inflammatory markers) [3] | keratinocyte viability (XTT) [4] | expression of ISGs and inflammatory markers (mRNA) during WNV infection [5] | concentration from which decreased pro-inflammatory cytokine release was seen [6] [µg/mL] | RSAD2 protein expression [7, 14] | RSAD2 protein expression [7, 15] | keratinocyte viability (LDH release) [8] | reduction in the viral titer (factor) ([9]; 1 µg/mL peptide) | reduction in the viral titer (factor) ([9]; 10 µg/mL peptide) | reduction in the viral infectious titer ([9]; WNV strain incubated with peptide, concentration not given) [log10] | CXCL-8 mRNA expression, peptide alone ([3]; 10 µg/mL peptide alone, p < 0.05 (Figure S1)) | concentration at which the antiviral effect is significant [10] | DENV titer [11] | inflammatory response of NHEK [12]
1 | LL-37 | ≥ 10 | 5.5 | No significant difference | inhibits WNV replication | no significant pro-inflammatory effects | greater than or equal to 90% | not significant | ≥ 25 | significantly increased | enhanced | greater than or equal to 90% | 14 | 95 | 2 |  |  |  | 
2 | hBD-3 (GIINTLQKYYCRVRGGRCAVLSCLPKEEQIGKCSTRGRKCCRRKK; ends and bridges not checked; cysteine pairing not given here; UniProt P81534 23-67, looked up) [type 3 human β-defensin, skin antimicrobial peptide; purchased from PeproTech] |  |  | No significant difference | does not seem to have any effect; also recorded: not reduced | no significant pro-inflammatory effects | greater than or equal to 90% |  |  | significantly increased | enhanced | greater than or equal to 90% |  |  |  | notable exception | greater than 25 µg/mL | did not result in a significant decrease | 
3 | poly(I:C) |  |  |  |  |  |  |  |  |  |  |  |  |  |  |  |  |  | elicited an inflammatory response
